Measurements as given in the NIST ThermoML archive (doi:10.1021/je7003758).

Assay: xn = mol fraction of the nth substance listed
Conditions: 298.15 K, Liquid

ClCCCl [1,2-dichloroethane] + CN1CCCC1=O
mass density [kg/m3]
Conditions	x2 = 0.0993	x2 = 0.2025	x2 = 0.3012	x2 = 0.4029	x2 = 0.4975	x2 = 0.5832	x2 = 0.7037	x2 = 0.7984	x2 = 0.9029
100 kPa	1220.4	1195.3	1172.3	1149.2	1128.3	1110	1085.1	1066.3	1046.2
500 kPa	1220.7	1195.6	1172.6	1149.4	1128.5	1110.2	1085.4	1066.5	1046.5
1000 kPa	1221.2	1196	1173	1149.8	1128.9	1110.5	1085.7	1066.8	1046.7
1500 kPa	1221.7	1196.5	1173.4	1150.2	1129.2	1110.9	1086	1067.1	1047
2000 kPa	1222.1	1196.9	1173.7	1150.6	1129.6	1111.2	1086.3	1067.4	1047.3
2500 kPa	1222.6	1197.3	1174.2	1150.9	1129.9	1111.5	1086.6	1067.7	1047.6
2900 kPa	–	–	1174.5	–	–	–	–	–	–
3000 kPa	1223	1197.7	–	1151.3	1130.3	1111.9	1086.9	1068	1047.8
3400 kPa	–	–	–	1151.6	–	–	–	–	–
3500 kPa	1223.5	1198.1	1174.9	–	1130.6	–	1087.2	1068.3	1048.1
3600 kPa	–	–	–	–	–	1112.2	–	–	–
4000 kPa	1223.9	1198.5	1175.3	1152	1131	1112.5	1087.6	1068.6	1048.4
4500 kPa	1224.4	1198.9	1175.7	–	1131.3	1112.8	1087.8	1068.8	1048.6
4600 kPa	–	–	–	1152.3	–	–	–	–	–
5000 kPa	1224.8	1199.3	1176.1	1152.8	1131.6	1113.2	1088.1	1069.1	1048.9
5500 kPa	1225.2	1199.8	1176.5	1153.1	1131.9	1113.5	1088.4	1069.4	1049.2
6000 kPa	1225.7	1200.2	1176.9	1153.5	1132.4	1113.8	1088.7	1069.7	1049.4
6500 kPa	1226.1	1200.6	1177.2	1153.9	1132.7	1114.1	1089	1070	1049.7
6900 kPa	–	–	–	–	–	1114.4	–	–	–
7000 kPa	1226.5	1201	1177.6	1154.2	1133	–	1089.3	1070.3	1050
7500 kPa	1227	1201.4	1178	1154.6	1133.3	1114.8	1089.6	1070.5	1050.2
7900 kPa	–	–	–	–	1133.7	–	–	–	–
8000 kPa	1227.4	1201.8	1178.4	1154.9	–	1115	1089.9	1070.9	1050.6
8500 kPa	1227.8	1202.2	1178.8	1155.3	1134.1	1115.4	1090.2	1071.1	1050.8
8900 kPa	–	1202.6	–	–	–	–	–	–	–
9000 kPa	1228.2	–	1179.2	1155.6	1134.4	1115.7	1090.5	1071.3	1051.1
9500 kPa	1228.6	1203.1	1179.6	1156	1134.7	1116	1090.8	1071.6	1051.3
9900 kPa	–	–	1180	–	1135	–	–	–	–
10000 kPa	1229.2	1203.6	–	–	–	–	–	–	–
